The text below walks through data of patent US9985214B2, “Monoamine compound, charge transport material, composition for charge transport film, organic electroluminescent element, organic EL display, and organic EL lighting” (Mitsubishi Chemical Corporation, priority 2009, dated 2018).

What all share (assay type): physicochemical
A short description of data set [1]: Glass transition temperature of the compound.
Data set [2] is described as follows: Measurement of solubility in m-xylene. The arrangement: key: +: The compound dissolved.; −: The compound remained undissolved, giving a suspension, or separated out as crystals in 12 hours. The text has this:
<Measurement of Solubility in m-Xylene>
The compound I synthesized in [Synthesis of Compound I] above and the comparative compounds X-A and X-B represented by the following structural formulae were examined for solubility in m-xylene.

The nature of data set [3]: Dissolution of the compound in the composition for luminescent-layer formation / production of element. As to conditions: same procedure as Example 2, cyclohexylbenzene as solvent; production of an element was impossible. As to the method:
Next, a composition for luminescent-layer formation which included compound C3 represented by the following formula and the compound II obtained in Synthesis Example as charge-transporting compounds, phosphorescent metal complex D2, and cyclohexylbenzene as a solvent was prepared. The concentrations of the compound C3, the compound II, and the phosphorescent metal complex D2 in the composition were 1.25% by mass, 3.75% by mass, and 0.7% by mass, respectively.
The same procedure as in Example 2 was conducted, except that the compound X-C was used in place of the compound II.

On to `c1ccc(-c2cccc(-c3ccc(N(c4ccc(-c5cccc(-c6cccc(-n7c8ccccc8c8ccccc87)c6)c5)cc4)c4ccc(-c5cccc(-n6c7ccccc7c7ccccc76)c5)cc4)cc3)c2)cc1` [Compound I], for which, in data set [1], the Glass transition temperature was found to be 127 °C. Moreover, in data set [2], the “Solubility in m-xylene, Concentration 1.0 mass %” value was “+”; the “Solubility in m-xylene, Concentration 5.0 mass %” value is reported as “+”; the “Solubility in m-xylene, Concentration 10 mass %” value is listed as “+”.

For `c1ccc(-c2ccc(-c3ccc(N(c4ccc(-c5cccc(-c6cccc7ccccc67)c5)cc4)c4ccc(-c5cccc(-n6c7ccccc7c7ccccc76)c5)cc4)cc3)cc2)cc1` [Compound X-C], in data set [3], the “behaviour of the compound after dissolution in the composition for luminescent-layer formation” value is “crystallized after dissolved”.

In data set [1], `c1cc(-c2ccc(N(c3ccc(-c4cccc(-n5c6ccccc6c6ccccc65)c4)cc3)c3ccc(-c4cccc(-n5c6ccccc6c6ccccc65)c4)cc3)cc2)cc(-n2c3ccccc3c3ccccc32)c1` [X-A] showed a Glass transition temperature of 159 °C. Moreover, in data set [2], the “Solubility in m-xylene, Concentration 1.0 mass %” value was “+”; the “Solubility in m-xylene, Concentration 5.0 mass %” value was “−”; the “Solubility in m-xylene, Concentration 10 mass %” value is listed as “−”.

In data set [1], `c1ccc(-c2cccc(-c3ccc(N(c4ccc(-c5cccc(-n6c7ccccc7c7ccccc76)c5)cc4)c4ccc(-c5cccc(-n6c7ccccc7c7ccccc76)c5)cc4)cc3)c2)cc1` [X-B] had a Glass transition temperature of 120 °C. Also, in data set [2], the “Solubility in m-xylene, Concentration 1.0 mass %” value is recorded as “−”; the “Solubility in m-xylene, Concentration 5.0 mass %” value is on record as “−”; the “Solubility in m-xylene, Concentration 10 mass %” value is reported as “−”.
